Measurements from PMC3480206 (Future microbiology, 2012).
≈ marks a conversion by molar mass, not a printed value. Entries after “also recorded” stand apart in the source; their conditions may differ. Read-outs that look alike come from different tables or passages of the source.

Experiments:
[1] = system: Mycobacteria avium, marinum, chelonae and abscessus; test: MIC on other pathogenic Mycobacteria; assay type: cell-based
[2] = IND-directed repeat-dose toxicology studies
Cryptococcus neoformans = test: MIC on Cryptococcus neoformans; assay type: cell-based
[3] = system: Salmonella–Escherichia coli; test: Salmonella–Escherichia coli/microsome plate incorporation assay; assay type: cell-based; details: In vitro mutagenicity studies
[4] = In vivo pairwise drug-drug interaction studies with first-line drugs; details: pairwise studies of SQ109 with INH, RIF or streptomycin in mice or rats
[5] = rats; cited from earlier work
[6] = system: Mycobacteria bovis, M. bovis BCG and Mycobacteria fortuitum; assay type: cell-based
Clostridium difficile = test: MIC on Clostridium difficile; assay type: cell-based; details: Clostridioides difficile
Mtb inside macrophages [7] = details: cited from earlier work
[8] = system: Mycobacterium tuberculosis H37Rv; test: BACTEC MIC; assay type: cell-based; details: ATCC27294|H37RV
[9] = system: Helicobacter pylori clinical isolates; test: MIC and time-kill on Helicobacter pylori; assay type: cell-based
Mtb [10] = details: cited from earlier work
Candida spp. = test: MIC on Candida spp.; assay type: cell-based
[11] = system: Mycobacterium tuberculosis H37Rv; details: cited from earlier work
Mtb inside macrophages [12] = test: Intracellular killing in Mtb-infected macrophages; assay type: cell-based, Mycobacterium tuberculosis; details: SQ109 with CFZ; Reddy V, Unpublished Data
[13] = rat, in vivo; cited from earlier work
[14] = system: Mycobacterium tuberculosis H37Rv; details: mouse, in vivo; cited from earlier work
[15] = system: Mycobacterium tuberculosis H37Rv; test: In vitro drug interaction, checkerboard titration by 96-well microdilution; assay type: cell-based
Enterococci spp. = test: MIC on Enterococci spp.; assay type: cell-based
[16] = Neurological safety assessment, rats; assay type: in vivo; details: 90-day oral dosing at 30, 120 and 240 mg/m^2/day
[17] = Phase Ic, multiple daily 300 mg doses
[18] = mice; cited from earlier work
Haemophilus influenzae = test: MIC on Haemophilus influenzae; assay type: cell-based
[19] = system: Mtb gene clusters GC82 and GC120, iniBAC operon; details: cited from earlier work
Mtb [20] = test: Broth microdilution MIC against Mtb; assay type: cell-based, Mycobacterium tuberculosis
[21] = Micronucleus assay in rats; details: rat, in vivo
[22] = Neurological safety assessment, beagle dogs; assay type: in vivo; details: 90-day oral dosing at 100, 300 and 1000 mg/m^2/day
CYP3A4 = details: cited from earlier work
[23] = Cardiovascular safety, beagle dogs
[24] = human, in vivo
Streptococcus pneumoniae = test: MIC on Streptococcus pneumoniae; assay type: cell-based
[25] = Pulmonary safety testing, beagle dogs; assay type: in vivo; details: single oral dosing at 75, 140 and 300 mg/m^2
[26] = in vivo
[27] = PK evaluation on coadministration with second-line drugs
Mtb [28] = details: 10 mg/kg, cited from earlier work
Mtb [29] = details: cited from earlier work; remark: listed apart in the source
Aspergillus fumigatus = test: MIC on Aspergillus fumigatus; assay type: cell-based
CYP450 2D6 and 2C19 = details: cited from earlier work
Mtb [30] = test: Rapid, high-dose model of TB infection; assay type: in vivo, mice; details: murine model of acute infection
[31] = Phase Ia, escalating single dose; details: for mean maximum concentration: fasting human subjects
[32] = Phase Ib, multiple daily doses; assay type: in vivo, healthy humans
Neisseria gonorrhoeae = test: MIC and MBC on Neisseria gonorrhoeae; assay type: cell-based
[33] = single oral dosing at 75, 140 and 300 mg/m^2
[34] = 300 mg with high-fat, high-calorie meal

CC(C)=CCC/C(C)=C/CNCCNC1C2CC3CC(C2)CC1C3 (stereo not drawn) [SQ109, N-geranyl-N′-(2-adamantyl)ethane-1,2-diamine]
MIC [1]: 4 to 16 µg/mL (≈ 12.1 to 48.4 µM)
toxicities and adverse events ([2]; 40 mg/kg/day, three animal species, except emesis in dogs): no cardiovascular, hepatic, hematologic, neurological or ocular toxicities
NOAEL ([2]; dog, rat, nonhuman primate, in vivo): 30 to 40 mg/kg/day
phospholipidosis ([2]; in vivo): did cause phospholipidosis
MIC (Cryptococcus neoformans): 0.25 to 4 µg/mL (≈ 0.756 to 12.1 µM)
Salmonella–Escherichia coli/microsome plate incorporation assay [3]: Negative
in vivo drug–drug interactions or PK changes [4]: no in vivo adverse drug–drug interactions or PK changes
tissue distribution [5]: highest concentrations of SQ109 in liver
activity against other Mycobacteria [6]: active
MIC (Clostridium difficile): 8 to 16 µg/mL (≈ 24.2 to 48.4 µM)
time to kill intracellular Mtb in infected macrophage assay (Mtb inside macrophages [7]; SQ109 with sutezolid): improved synergistically
reduction of intracellular Mtb (Mtb inside macrophages [7]; at its MIC): 99%
killing of Mtb inside macrophages relative to INH and EMB (Mtb inside macrophages [7]): equivalent to INH and superior to EMB
MIC [8]: ≤ 0.2 µg/mL
bactericidal or bacteriostatic ([9]; H. pylori): bactericidal
time–kill assays versus first-line drugs ([9]; H. pylori): better than amoxicillin and metronidazole
MIC range ([9]; all H. pylori clinical isolates, manuscript in preparation): 2.5 to 15 µg/mL
incorporation into trehalose monomyclate (TMM) (Mtb [10]): increased
incorporation of mycolic acids into the cell wall (Mtb [10]; trehalose dimycolate and arabinogalactan-bound mycolates): decreased
MIC (Candida spp.): 1 to 8 µg/mL (≈ 3.03 to 24.2 µM)
improvement of SQ109 activity [11]: fourfold
in vitro interaction [11]: synergistic; also recorded: additive
interaction in macrophage intracellular killing assay (Mtb inside macrophages [12]): synergy
bioavailability of SQ109 [13]: 21.4%
activity in model of chronic TB [14]: better activity than EMB at 100 mg/kg
MIC ([15]; Mycobacterium tuberculosis, H37RV, read-out: MIC Alone): 0.5 µg/mL
in vitro interaction ([15]; SQ109 with AMK, Unpublished Data): synergy
in vitro interaction ([15]; SQ109 with CFZ, Reddy V, Unpublished Data): synergy
in vitro interaction ([15]; SQ109 with CM, Unpublished Data): synergy
in vitro interaction ([15]; SQ109 with CS, Unpublished Data): additive
in vitro interaction ([15]; SQ109 with ETA, Unpublished Data): additive
in vitro interaction ([15]; SQ109 with KAN, Unpublished Data): additive
in vitro interaction ([15]; SQ109 with MXF, Unpublished Data): synergy
in vitro interaction ([15]; SQ109 with all the rifamycins, including rifapentine and rifabutin): profound synergy
in vitro interaction ([15]; SQ109 with para-aminosalicylic acid, Unpublished Data): additive
MIC Combination ([15]; checkerboard SQ109 + CFZ, Mtb H37Rv): 0.125 µg/mL
MIC (Enterococci spp.): 8 to 32 µg/mL (≈ 24.2 to 96.8 µM)
Functional observational battery parameters [16]: No change
subjects with lung concentrations above the MIC for Mtb ([17]; 12 h after dosing, expected from plasma concentration–time profile): approximately 50%
serious adverse events ([17]; Phase Ic, 300 mg daily for 14 days): no SAEs
time to steady-state conditions ([17]; daily administration of 300 mg): ≤ 10 days
lung concentration relative to SQ109 MIC ([17]; steady state, once-daily 300 mg, from preclinical plasma/lung relationship): approximately 5.8 fold
concentration in lung and spleen compared with plasma [18]: at least 45 fold
MIC (Haemophilus influenzae): 1 to 32 µg/mL (≈ 3.03 to 96.8 µM)
Activity on Mtb gene clusters GC82 and GC120 [19]: Downregulates
transcription of the iniBAC operon [19]: induces
MIC (Mtb [20]; Mycobacterium tuberculosis): 0.78 µg/mL (≈ 2.36 µM)
MIC range (Mtb [20]; overall range on Mtb): 0.2 to 0.78 µg/mL
Micronucleus assay in rats [21]: Negative
Functional observational battery parameters [22]: No change
activation of CYP450 3A4 (CYP3A4): not activated
metabolism by CYP450 3A4 (CYP3A4): nor is it metabolized
Blood pressure ([23]; at 75 and 140 mg/m^2): No change
Body weights [23, 33]: No change
Clinical observations [23, 33]: No deaths
Clinical pathology: hematology or clinical chemistry [23, 33]: No change
ECG waveforms (rhythms and morphology) [23, 33]: No change
Heart rate/ECG data [23, 33]: No change
Mouse lymphoma mutation assay (Mouse lymphoma): Negative
safety and tolerability [24]: safe and well-tolerated
MIC (Streptococcus pneumoniae): 2 to 4 µg/mL (≈ 6.05 to 12.1 µM)
Minute volume [25]: No change
Respiratory rate [25]: No change
Tidal volume [25]: No change
Segment 1: effects on male and female gamete maturation, copulatory performance, fertilization, zygote development and embryo implantation [26]: No impact
Segment 2: effects on pregnant female and development of embryo and fetus from implantation [26]: No impact
exposure of mice to SQ109 ([27]; in the presence of CS and KAN): slightly decreased
pharmacology profile on coadministration ([27]; mice, SQ109 and MXF coadministered): not affected
weight loss of infected mice (Mtb [28]; versus untreated infected mice): significantly reduced weight loss
efficacy in screening and chronic model of TB (Mtb [28]; mice): efficacious
Effect on acid-fastness of Mtb (Mtb [29]): No effect
MIC (Aspergillus fumigatus): 8 µg/mL (≈ 24.2 µM)
human CYP450 enzymes producing the four major metabolites (CYP450 2D6 and 2C19): CYP450 2D6 and 2C19
efficacious dose for treatment of TB (Mtb [30]): 10 mg/kg/day
food effect on half-life [31, 34]: increased
food effect on maximum serum concentration [31, 34]: decreased
mean maximum concentration ([31]; 10-mg oral dose): 0.729 ng/mL
mean maximum concentration ([31]; 300-mg oral dose): 20.2 ng/mL
serious adverse events ([31]; Phase Ia, single oral doses 5-300 mg): no serious AEs
half-life ([31]; human, serum, oral, 300 mg): 61.1 h
tolerability ([32]; 75 mg daily for 14 days or 150 mg daily for 5 days then days 9 and 14): well tolerated
serious adverse events ([32]; Phase Ib): no SAEs
MBC (Neisseria gonorrhoeae): 0.038 µg/mL (≈ 0.115 µM)
MIC (Neisseria gonorrhoeae): 0.038 µg/mL (≈ 0.115 µM)
